In the NIST ThermoML archive (doi:10.1021/je101199g):
± gives the expanded uncertainty stated by the source.

Details: Crystal

## COC(=O)OC [dimethyl carbonate]
  Normal melting temperature: 5.01 ± 0.62 °C

## CCCCCCCCCCCCO [dodecan-1-ol]
  Normal melting temperature: 23.36 ± 0.62 °C

## Cc1ncc[nH]1 [2-methylimidazole]
  Normal melting temperature: 146.23 ± 1.2 °C

## O=C(Oc1ccccc1)Oc1ccccc1 [diphenyl carbonate]
  Normal melting temperature: 80.81 ± 1.2 °C
